Here are results for one sequence from patent US9540418B2, “Polypeptide specifically binding to rare earth nanoparticles and use thereof” (University of Science and Technology of China, priority 2012, dated 2017).

One series concerns mice liver. Briefly: Autophagosome formation in mice livers by transmission electron microscope. It is filed as in vivo, Balb/c mice. To be noted: RE-1 with UCN, PEG with UCN, AP-1 with UCP. The method, then: Balb/c mice (purchased from SLAC Laboratory Animal (Shanghai, China), 6 weeks old, and weighed 20 g when used) were bred in a sterile housing, and then 300 μg (dosage: 15 mg/kg) UCN, UCN+PEG (containing 10 mg PEG), UCN+RE-1, UCP, UCP+RE-1, or UCP+AP-1 was injected through tail vein. An equal volume of normal saline was injected as a control. After 24 hr, the livers of the mice were removed and subjected to western blotting assay.
The mice livers obtained as described in Example 21 were in situ fixed with 2.5% glutaral-dimethyl arsine buffer (pH 7.4) at 4° C. for 1 hr, then fixed with 2% osmium tetroxide at room temperature for 1 hr, and then dehydrated with ethanol gradients. Then, the cell samples were embedded into epoxy resin (EPON812). The embedded cell samples were cut into ultrathin slices, which were stained with uranyl acetate and lead citrate, and observed and imaged under a transmission electron microscope (JEOL-1230, JEOL, Japan).

Series [1] can be described thus: Competitive inhibition of REOB-1 phage binding to Nd2O3 by polypeptides (IC50). To be noted: 100 μg Nd2O3, REOB-1 phages at a titer of 108, 2 hr incubation; read-out: IC50 (μM)* of polypeptides competitively inhibiting the binding of REOB-1 phages to Nd2O3 nanoparticles. How it is done:
100 μg Nd2O3 was mixed with the polypeptides, RE-1, AP-1, RE-2, RE-3, RE-4, RE-5, RE-6, RE-7, RE-8, RE-9, RE-10, etc., respectively. To the mixture, REOB-1 phages at a titer of 108 were added. After 2 hr of incubation, the number of REOB-1 phages binding to Nd2O3 was measured. IC50 value indicated the relative activity of various polypeptides competitively inhibiting the binding of REOB-1 phages to Nd2O3 nanoparticles. The polypeptide RE-1 and its analogues had different binding ability to Nd2O3.

A short description of series [2]: Binding of FITC-RE-1 to UCP (time, concentration, pH, salt, temperature). The following applies: 10 μg FITC-RE-1, 100 μg UCP. How it is done: 10 μg of FITC-RE-1 was incubated with 100 μg of UCP for different time periods (2 min, 10 min, 30 min, 120 min, and 720 min). Then, the amount of FITC-RE-1 fluorescent peptide binding to UCP was measured by using fluorescence spectrophotometer.
100 μg of UCP was incubated with FITC-RE-1 at various concentrations (1 μg, 5 μg, 10 μg, and 20 μg) for 1 hr. The excess and unbound peptides were washed off. The amount of FITC-RE-1 fluorescent peptide binding to UCP was measured by using fluorescence spectrophotometer.
10 μg of FITC-RE-1 was incubated with 100 μg of UCP dissolved at different pH values (pH 3, 5, 7, 10) for 1 hr. The excess and unbound peptides were washed off. The amount of FITC-RE-1 fluorescent peptide binding to UCP was measured by using fluorescence spectrophotometer.
10 μg of FITC-RE-1 was incubated with 100 μg of UCP dissolved at different salt ion concentrations (0 M, 0.15 M, 0.3 M, and 0.5 M NaCl) for 1 hr. The excess and unbound peptides were washed off. The amount of FITC-RE-1 fluorescent peptide binding to UCP was measured by using fluorescence spectrophotometer.
10 μg of FITC-RE-1 was incubated with 100 μg of UCP dissolved in water at different temperatures (25° C., 37° C., 55° C., and 80° C.) for 1 hr. The excess and unbound peptides were washed off. The amount of FITC-RE-1 fluorescent peptide binding to UCP was measured by using fluorescence spectrophotometer.

The next series relates to HeLa cells. Briefly: Adherence of UCN coated with RE-1 or RE-1-RGD to HeLa cells. It is filed as cell-based. The following applies: 37° C., 2 hr, versus uncoated. The method, then: HeLa cells were cultured on a coverslip (22 mm×22 mm), which was then placed into a 6-well plate with the cells facing upward or downward, and the coverslip was supported by a sterilized glass cube (2 mm×2 mm×2 mm). Then, 4 mL of DMEM medium containing the rare-earth upconversion nanophosphors coated with RE-1 or RE-1-RGD or without any coating was slowly poured into the 6-well plate, such that the cells were fully immersed in the medium, and the coverslip was just located at the middle of the height of the liquid. The cells were placed into a cell incubator at 37° C. for 2 hr, and then washed with PBS 3 times. The UCNs adhered to the surfaces of the cells were observed under a fluorescence microscope (Olympus IX71, Olympus, Japan) equipped with a 980-nm infrared laser (MDL-980 nm 1 W, Changchun New Industries Optoelectronics Tech. Co., Ltd, China).

The nature of series [3]: Dissociation of FITC-RE-1 from UCP over time. It is filed as binding. The following applies: after 48 hr, 37° C., shaking. The method, then:
250 μg FITC-RE-1 was thoroughly mixed with 500 μg UCN. The excess and unbound polypeptides were washed off. Then, the mixture was divided into five aliquots. The aliquots were gently shaked on a shaking table at 37° C. The amount of FITC-RE-1 dissociated in the supernatants was measured by using a fluorescence spectrophotometer at different time points (0 hr, 2 hr, 12 hr, 24 hr, and 48 hr).
The process described above was repeated except that 50 μg FITC-RE-1 and 500 μg UCP were used. The amount of FITC-RE-1 dissociated in the supernatants was measured.

Series [4] in a line: Binding of FITC-RE-1 to UCN (time, concentration, pH, salt, temperature). The following applies: 50 μg FITC-RE-1, 100 μg UCN. The method, then:
50 μg of FITC-RE-1 was incubated with 100 μg of UCN for different time periods (2 min, 10 min, 30 min, 120 min, and 720 min). Then, the amount of FITC-RE-1 fluorescent peptide binding to UCN was measured by using fluorescence spectrophotometer.
100 μg of UCN was incubated with FITC-RE-1 at various concentrations (5 μg, 10 μg, 25 μg, 50 μg, and 100 μg) for 1 hr. The excess and unbound peptides were washed off. The amount of FITC-RE-1 fluorescent peptide binding to UCN was measured by using fluorescence spectrophotometer.
50 μg of FITC-RE-1 was incubated with 100 μg of UCN dissolved at different pH values (pH 3, 5, 7, and 10) for 1 hr. The excess and unbound peptides were washed off. The amount of FITC-RE-1 fluorescent peptide binding to UCN was measured by using fluorescence spectrophotometer.
50 μg of FITC-RE-1 was incubated with 100 μg of UCN dissolved at different salt ion concentrations (0 M, 0.15 M, 0.3 M, and 0.5 M NaCl) for 1 hr. The excess and unbound peptides were washed off. The amount of FITC-RE-1 fluorescent peptide binding to UCN was measured by using fluorescence spectrophotometer.
50 μg of FITC-RE-1 was incubated with 100 μg of UCN dissolved in water at different temperatures (25° C., 37° C., 55° C., and 80° C.) for 1 hr. […] The amount of FITC-RE-1 fluorescent peptide binding to UCN was measured by using fluorescence spectrophotometer.

By IC50 is commonly meant the concentration that gives 50% inhibition. Turning to “ACTARSPWICG [RE-1, RE-0 with terminal amino acids A and G added]”, the “inhibition of autophagosome formation induced by nanophosphors (UCN, UCP) in liver” value with mice liver is given as “significantly inhibited”. Besides, the IC50 in series [1] was 3.01 ± 0.14 µM. Moreover, the “binding to UCP at 2 min” value in series [2] (2 min) is given as 50%. In series [2] (10 min), the “binding to UCP at 10 min” value is on record as “almost binding saturation”. Moreover, the “number of coated upconversion nanophosphors adhered to the surface of the cells” value with HeLa cells is listed as “greatly reduced”. Also, the “dissociation from UCP” value in series [3] is “less than 1.5%”. In series [4] (2 min), the “binding to UCN at 2 min” value is 50%. In series [4] (10 min), the “binding to UCN at 10 min” value was “almost binding saturation”.
